Reference: the NIST ThermoML archive (doi:10.1016/j.jct.2017.07.019)
Numbers after ± are expanded uncertainties. Each block holds one compound with its values, some of them ahead of it.

Details: Liquid, Ebulliometric method (Recirculating still)

Structure (SMILES): Cc1ccc(C)cc1 [1,4-dimethylbenzene]
vapor or sublimation pressure (411.45 K): 101.3 ± 0.7 kPa

vapor or sublimation pressure (382.15 K): 101.3 ± 0.6 kPa
Structure (SMILES): OCC(F)(F)C(F)F [2,2,3,3-tetrafluoro-1-propanol]

vapor or sublimation pressure (334.35 K): 101.3 ± 0.7 kPa
Structure (SMILES): ClC(Cl)Cl [trichloromethane]

vapor or sublimation pressure (373.05 K): 101.3 ± 0.6 kPa
Structure (SMILES): O [water]
